Experimental data taken from ChEMBL document CHEMBL4507292 (2021).

Columns and labels:
[1] = biological target: cAMP-dependent protein kinase catalytic subunit PRKX (Homo sapiens) (UniProt P51817); conditions: Compound concentration 1000.0 nM
[2] = biological target: Interleukin-1 receptor-associated kinase 3 (Homo sapiens) (UniProt Q9Y616); conditions: Compound concentration 1000.0 nM
[3] = tested on: Phosphatidylinositol 4,5-bisphosphate 3-kinase catalytic subunit alpha isoform (Homo sapiens), P42336 [H1047Y]; conditions: Compound concentration 1000.0 nM
[4] = biological target: Serine/threonine-protein kinase PAK 4 (Homo sapiens) (UniProt O96013); conditions: Compound concentration 1000.0 nM
Sequence of Serine/threonine-protein kinase PAK 4 (Homo sapiens) (O96013 whole entry, looked up): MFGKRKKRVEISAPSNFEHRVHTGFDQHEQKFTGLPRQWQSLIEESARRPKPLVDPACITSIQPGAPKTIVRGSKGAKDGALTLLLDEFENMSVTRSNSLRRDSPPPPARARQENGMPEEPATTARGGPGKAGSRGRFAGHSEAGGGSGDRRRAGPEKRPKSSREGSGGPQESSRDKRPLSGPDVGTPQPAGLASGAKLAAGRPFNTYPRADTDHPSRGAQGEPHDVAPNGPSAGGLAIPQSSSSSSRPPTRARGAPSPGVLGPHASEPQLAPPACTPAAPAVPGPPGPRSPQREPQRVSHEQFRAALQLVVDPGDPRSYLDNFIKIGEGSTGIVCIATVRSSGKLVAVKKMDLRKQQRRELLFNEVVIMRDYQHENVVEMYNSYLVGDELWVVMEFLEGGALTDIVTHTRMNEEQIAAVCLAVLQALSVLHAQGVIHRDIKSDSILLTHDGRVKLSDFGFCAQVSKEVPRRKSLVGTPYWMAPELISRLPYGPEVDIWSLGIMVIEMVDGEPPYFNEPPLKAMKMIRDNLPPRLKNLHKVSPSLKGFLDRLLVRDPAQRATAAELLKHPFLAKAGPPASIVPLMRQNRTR

[5] = biological target: Mitogen-activated protein kinase kinase kinase kinase 2 (Homo sapiens) (UniProt Q12851); conditions: Compound concentration 1000.0 nM
Sequence of Mitogen-activated protein kinase kinase kinase kinase 2 (Homo sapiens) (Q12851 whole entry): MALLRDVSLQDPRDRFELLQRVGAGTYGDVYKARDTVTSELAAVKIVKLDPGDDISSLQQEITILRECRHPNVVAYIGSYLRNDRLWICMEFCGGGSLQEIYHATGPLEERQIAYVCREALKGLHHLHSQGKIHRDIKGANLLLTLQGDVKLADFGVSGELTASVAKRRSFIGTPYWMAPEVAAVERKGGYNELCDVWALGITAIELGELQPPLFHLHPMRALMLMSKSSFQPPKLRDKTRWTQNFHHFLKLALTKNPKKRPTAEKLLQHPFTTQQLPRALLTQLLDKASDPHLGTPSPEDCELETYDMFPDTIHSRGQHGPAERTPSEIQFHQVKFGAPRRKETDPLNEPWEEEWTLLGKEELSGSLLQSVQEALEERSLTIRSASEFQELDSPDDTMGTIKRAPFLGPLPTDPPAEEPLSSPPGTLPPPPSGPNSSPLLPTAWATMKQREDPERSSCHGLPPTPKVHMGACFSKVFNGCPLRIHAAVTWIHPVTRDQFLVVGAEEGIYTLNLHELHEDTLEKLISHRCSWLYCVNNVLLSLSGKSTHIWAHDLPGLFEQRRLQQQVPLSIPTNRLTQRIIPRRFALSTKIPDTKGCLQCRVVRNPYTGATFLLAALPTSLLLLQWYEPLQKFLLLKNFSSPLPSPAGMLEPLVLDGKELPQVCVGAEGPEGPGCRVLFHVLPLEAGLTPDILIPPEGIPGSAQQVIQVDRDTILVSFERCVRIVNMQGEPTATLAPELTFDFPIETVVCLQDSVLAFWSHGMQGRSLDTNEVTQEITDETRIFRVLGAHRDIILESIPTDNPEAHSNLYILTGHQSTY

[6] = biological target: Non-receptor tyrosine-protein kinase TYK2 (Homo sapiens) (UniProt P29597); conditions: Compound concentration 1000.0 nM
[7] = biological target: Tyrosine-protein kinase ABL1 (Homo sapiens) (UniProt P00519); conditions: Compound concentration 1000.0 nM
[8] = biological target: Serine/threonine-protein kinase PAK 3 (Homo sapiens) (UniProt O75914); conditions: Compound concentration 1000.0 nM
Sequence of Serine/threonine-protein kinase PAK 3 (Homo sapiens) (O75914 whole entry, looked up): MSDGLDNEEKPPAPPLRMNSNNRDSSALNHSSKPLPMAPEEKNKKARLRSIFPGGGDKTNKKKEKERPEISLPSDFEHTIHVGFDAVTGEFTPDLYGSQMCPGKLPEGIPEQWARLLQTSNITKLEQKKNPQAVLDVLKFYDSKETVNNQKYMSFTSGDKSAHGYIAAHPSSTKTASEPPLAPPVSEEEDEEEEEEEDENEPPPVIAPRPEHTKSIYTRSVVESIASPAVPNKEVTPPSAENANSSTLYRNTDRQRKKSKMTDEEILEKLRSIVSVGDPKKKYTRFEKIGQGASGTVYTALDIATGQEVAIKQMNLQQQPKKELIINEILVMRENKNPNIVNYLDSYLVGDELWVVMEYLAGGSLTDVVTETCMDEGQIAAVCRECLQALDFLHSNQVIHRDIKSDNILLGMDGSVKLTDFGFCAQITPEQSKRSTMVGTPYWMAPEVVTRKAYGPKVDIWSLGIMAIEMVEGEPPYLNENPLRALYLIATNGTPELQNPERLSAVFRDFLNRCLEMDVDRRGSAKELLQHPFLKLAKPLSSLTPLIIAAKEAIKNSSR

[9] = biological target: Serine/threonine-protein kinase LATS1 (Homo sapiens) (UniProt O95835); conditions: Compound concentration 1000.0 nM
[10] = tested on: Epidermal growth factor receptor (Homo sapiens), P00533 [UNDEFINED MUTATION]; conditions: Compound concentration 1000.0 nM
Sequence of Epidermal growth factor receptor (Homo sapiens), P00533 [UNDEFINED MUTATION] (P00533 whole entry, looked up, change not shown): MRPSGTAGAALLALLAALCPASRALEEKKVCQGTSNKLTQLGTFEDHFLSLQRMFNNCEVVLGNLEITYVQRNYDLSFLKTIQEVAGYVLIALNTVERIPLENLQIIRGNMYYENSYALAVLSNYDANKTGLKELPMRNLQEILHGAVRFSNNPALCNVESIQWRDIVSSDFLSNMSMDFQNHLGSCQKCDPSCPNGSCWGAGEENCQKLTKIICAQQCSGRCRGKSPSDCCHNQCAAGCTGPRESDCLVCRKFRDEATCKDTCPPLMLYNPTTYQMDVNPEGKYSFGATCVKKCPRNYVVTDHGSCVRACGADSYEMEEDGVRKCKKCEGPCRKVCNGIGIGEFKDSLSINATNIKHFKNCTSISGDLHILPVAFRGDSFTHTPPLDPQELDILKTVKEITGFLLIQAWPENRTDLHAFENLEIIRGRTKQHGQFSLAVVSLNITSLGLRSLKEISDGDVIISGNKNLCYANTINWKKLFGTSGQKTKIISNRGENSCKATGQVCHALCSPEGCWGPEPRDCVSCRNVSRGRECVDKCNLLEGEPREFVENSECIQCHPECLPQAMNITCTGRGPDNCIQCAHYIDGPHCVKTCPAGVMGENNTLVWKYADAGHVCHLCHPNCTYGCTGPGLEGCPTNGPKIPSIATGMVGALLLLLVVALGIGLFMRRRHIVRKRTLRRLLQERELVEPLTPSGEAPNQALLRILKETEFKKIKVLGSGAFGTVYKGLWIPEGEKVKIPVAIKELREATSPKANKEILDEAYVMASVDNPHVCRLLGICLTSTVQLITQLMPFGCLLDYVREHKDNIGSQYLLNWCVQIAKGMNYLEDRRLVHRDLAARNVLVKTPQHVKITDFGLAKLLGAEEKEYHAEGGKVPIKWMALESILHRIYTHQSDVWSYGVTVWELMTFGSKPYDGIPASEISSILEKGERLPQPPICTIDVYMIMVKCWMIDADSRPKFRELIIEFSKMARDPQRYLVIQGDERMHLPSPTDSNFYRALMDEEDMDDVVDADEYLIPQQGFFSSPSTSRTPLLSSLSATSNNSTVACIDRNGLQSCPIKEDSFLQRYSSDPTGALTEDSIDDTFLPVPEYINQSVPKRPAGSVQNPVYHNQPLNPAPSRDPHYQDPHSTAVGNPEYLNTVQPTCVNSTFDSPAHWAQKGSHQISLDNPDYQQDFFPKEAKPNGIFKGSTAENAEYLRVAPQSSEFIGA

[11] = biological target: Ribosomal protein S6 kinase alpha-6 (Homo sapiens) (UniProt Q9UK32); conditions: Compound concentration 1000.0 nM
[12] = tested on: Tyrosine-protein kinase ABL1 (Homo sapiens), P00519 [T315I]; conditions: Compound concentration 1000.0 nM
[13] = biological target: Mitogen-activated protein kinase kinase kinase 4 (Homo sapiens) (UniProt Q9Y6R4); conditions: Compound concentration 1000.0 nM
[14] = biological target: Tyrosine-protein kinase HCK (Homo sapiens) (UniProt P08631); conditions: Compound concentration 1000.0 nM
[15] = biological target: Serine/threonine-protein kinase SIK3 (Homo sapiens) (UniProt Q9Y2K2); conditions: Compound concentration 1000.0 nM
[16] = tested on: Epidermal growth factor receptor (Homo sapiens), P00533 [UNDEFINED MUTATION]; conditions: Compound concentration 1000.0 nM; remark: listed apart in the source
[17] = biological target: Dual specificity tyrosine-phosphorylation-regulated kinase 1A (Homo sapiens) (UniProt Q13627); conditions: Compound concentration 1000.0 nM
[18] = biological target: Mitogen-activated protein kinase 12 (Homo sapiens) (UniProt P53778); conditions: Compound concentration 1000.0 nM
[19] = biological target: Mitogen-activated protein kinase 11 (Homo sapiens) (UniProt Q15759); conditions: Compound concentration 1000.0 nM
[20] = biological target: Tyrosine-protein kinase CSK (Homo sapiens) (UniProt P41240); conditions: Compound concentration 1000.0 nM
[21] = biological target: Mitogen-activated protein kinase kinase kinase 1 (Homo sapiens) (UniProt Q13233); conditions: Compound concentration 1000.0 nM
[22] = biological target: Receptor-interacting serine/threonine-protein kinase 2 (Homo sapiens) (UniProt O43353); conditions: Compound concentration 1000.0 nM
[23] = biological target: Protein kinase C epsilon type (Homo sapiens) (UniProt Q02156); conditions: Compound concentration 1000.0 nM
[24] = biological target: Mitogen-activated protein kinase 8 (Homo sapiens) (UniProt P45983); conditions: Compound concentration 1000.0 nM
[25] = biological target: Kappa-type opioid receptor (Homo sapiens, UniProt P41145); conditions: Compound concentration 10.0 uM
[26] = biological target: Receptor tyrosine-protein kinase erbB-4 (Homo sapiens) (UniProt Q15303); conditions: Compound concentration 1000.0 nM
[27] = biological target: Serine/threonine-protein kinase SBK1 (Homo sapiens) (UniProt Q52WX2); conditions: Compound concentration 1000.0 nM
Sequence of Serine/threonine-protein kinase SBK1 (Homo sapiens) (Q52WX2 whole entry): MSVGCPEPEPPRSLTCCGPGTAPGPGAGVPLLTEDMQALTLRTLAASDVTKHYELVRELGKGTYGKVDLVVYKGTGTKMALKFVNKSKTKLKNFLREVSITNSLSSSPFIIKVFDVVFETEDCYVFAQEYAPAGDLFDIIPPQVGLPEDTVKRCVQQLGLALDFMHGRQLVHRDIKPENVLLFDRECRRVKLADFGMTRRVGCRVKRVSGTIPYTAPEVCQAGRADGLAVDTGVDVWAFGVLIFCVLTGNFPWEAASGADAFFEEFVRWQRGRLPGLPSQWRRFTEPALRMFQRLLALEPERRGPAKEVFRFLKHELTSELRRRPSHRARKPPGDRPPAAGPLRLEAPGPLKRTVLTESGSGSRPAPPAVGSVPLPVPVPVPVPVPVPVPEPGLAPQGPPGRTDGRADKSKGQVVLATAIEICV

[28] = biological target: Ephrin type-B receptor 3 (Homo sapiens) (UniProt P54753); conditions: Compound concentration 1000.0 nM
[29] = biological target: T1, 5-hydroxytryptamine receptor 1A (Homo sapiens) (UniProt P08908); conditions: Compound concentration 10.0 uM
T1 sequence (whole entry): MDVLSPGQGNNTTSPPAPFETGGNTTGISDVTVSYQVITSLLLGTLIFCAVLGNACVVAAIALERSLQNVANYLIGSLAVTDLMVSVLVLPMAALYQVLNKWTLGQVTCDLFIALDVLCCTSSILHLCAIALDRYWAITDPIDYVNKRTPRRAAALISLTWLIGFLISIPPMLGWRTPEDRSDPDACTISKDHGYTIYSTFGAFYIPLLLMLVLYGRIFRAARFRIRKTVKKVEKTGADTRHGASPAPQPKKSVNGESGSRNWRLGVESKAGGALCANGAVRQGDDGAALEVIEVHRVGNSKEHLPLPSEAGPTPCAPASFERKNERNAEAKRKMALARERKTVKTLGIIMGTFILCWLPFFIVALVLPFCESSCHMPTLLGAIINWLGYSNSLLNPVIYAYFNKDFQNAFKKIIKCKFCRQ

[30] = biological target: Mitogen-activated protein kinase kinase kinase 12 (Homo sapiens) (UniProt Q12852); conditions: Compound concentration 1000.0 nM
Sequence of Mitogen-activated protein kinase kinase kinase 12 (Homo sapiens) (Q12852 whole entry): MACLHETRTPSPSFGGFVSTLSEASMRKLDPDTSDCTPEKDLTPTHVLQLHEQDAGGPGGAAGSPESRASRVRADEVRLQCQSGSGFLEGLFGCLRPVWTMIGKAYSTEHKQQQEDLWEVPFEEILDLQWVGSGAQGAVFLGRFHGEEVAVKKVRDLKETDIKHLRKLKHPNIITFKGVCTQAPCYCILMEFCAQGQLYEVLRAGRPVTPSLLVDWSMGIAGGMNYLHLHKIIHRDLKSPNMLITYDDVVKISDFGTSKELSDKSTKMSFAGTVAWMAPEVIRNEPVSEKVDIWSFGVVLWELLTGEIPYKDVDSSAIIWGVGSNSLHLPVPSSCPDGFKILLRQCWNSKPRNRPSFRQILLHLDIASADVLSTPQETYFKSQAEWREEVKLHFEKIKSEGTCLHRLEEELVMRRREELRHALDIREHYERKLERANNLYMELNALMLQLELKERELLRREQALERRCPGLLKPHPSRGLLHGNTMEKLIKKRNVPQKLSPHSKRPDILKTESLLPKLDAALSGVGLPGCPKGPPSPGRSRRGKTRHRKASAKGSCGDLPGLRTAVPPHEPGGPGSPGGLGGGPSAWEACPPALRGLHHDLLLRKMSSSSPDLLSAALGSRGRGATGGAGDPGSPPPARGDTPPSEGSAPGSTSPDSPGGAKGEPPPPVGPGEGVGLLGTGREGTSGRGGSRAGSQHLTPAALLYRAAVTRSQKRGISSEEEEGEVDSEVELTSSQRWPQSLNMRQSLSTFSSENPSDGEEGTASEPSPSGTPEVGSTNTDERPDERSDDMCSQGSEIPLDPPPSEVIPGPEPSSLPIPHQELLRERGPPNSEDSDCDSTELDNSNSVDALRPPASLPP

[31] = biological target: Tyrosine-protein kinase ABL2 (Homo sapiens) (UniProt P42684); conditions: Compound concentration 1000.0 nM
[32] = biological target: Dual specificity protein kinase TTK (Homo sapiens) (UniProt P33981); conditions: Compound concentration 1000.0 nM
[33] = tested on: Tyrosine-protein kinase ABL1 (Homo sapiens), P00519 [Q252H]; conditions: Compound concentration 1000.0 nM
[34] = biological target: T2, D(1B) dopamine receptor (Homo sapiens, UniProt P21918); conditions: Compound concentration 10.0 uM
T2 sequence (P21918 whole entry): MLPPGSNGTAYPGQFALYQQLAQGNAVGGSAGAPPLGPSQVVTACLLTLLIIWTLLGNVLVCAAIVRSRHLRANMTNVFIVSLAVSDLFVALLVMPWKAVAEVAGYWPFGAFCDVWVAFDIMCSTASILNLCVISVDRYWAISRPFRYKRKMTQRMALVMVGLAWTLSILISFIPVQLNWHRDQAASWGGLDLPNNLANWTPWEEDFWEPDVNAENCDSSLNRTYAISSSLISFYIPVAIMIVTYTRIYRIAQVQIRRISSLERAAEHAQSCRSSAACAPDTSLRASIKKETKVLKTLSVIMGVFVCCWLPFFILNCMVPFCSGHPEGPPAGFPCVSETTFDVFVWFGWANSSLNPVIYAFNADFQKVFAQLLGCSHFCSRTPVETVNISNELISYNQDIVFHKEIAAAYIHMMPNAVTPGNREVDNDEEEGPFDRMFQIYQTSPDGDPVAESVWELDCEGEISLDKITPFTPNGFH

[35] = biological target: T2, D(1B) dopamine receptor; test: GPCRScan assay: inhibition of D5; parameters: radioligand conc. used [nm] 2.0 – 3.0, parental cells HEKT
[36] = biological target: Calcium/calmodulin-dependent protein kinase type IV (Homo sapiens) (UniProt Q16566); conditions: Compound concentration 1000.0 nM
[37] = biological target: Insulin receptor-related protein (Homo sapiens) (UniProt P14616); conditions: Compound concentration 1000.0 nM
[38] = biological target: RAC-alpha serine/threonine-protein kinase (Homo sapiens) (UniProt P31749); conditions: Compound concentration 1000.0 nM
[39] = biological target: Calcium/calmodulin-dependent protein kinase type II subunit beta (Homo sapiens) (UniProt Q13554); conditions: Compound concentration 1000.0 nM

Row | Structure (SMILES) | residual activity [1] | residual activity [2] | residual activity [3] | residual activity [4] | residual activity [5] | residual activity [6] | residual activity [7] | residual activity [8] | residual activity [9] | residual activity [10] | residual activity [11] | residual activity [12] | residual activity [13] | residual activity [14] | residual activity [15] | residual activity [16] | residual activity [17] | residual activity [18] | residual activity [19] | residual activity [20] | further results
1 | O=C(O)c1cc(-c2ccc(C3CCNCC3)cc2)c2ccc(-c3ccc(C(F)(F)F)cc3)cc2c1 [PPTN] | 100% | 100% | 84% | 100% | 100% | 100% | 72% | 100% | 88% | 100% | 100% | 74% | 100% | 100% | 100% | 100% | 100% | 99% | 100% | 100% | residual activity [21]: 100%; residual activity [22]: 100%; residual activity [23]: 100%; residual activity [24]: 100%; inhibition [25]: 41.7%; residual activity [26]: 100%; residual activity [27]: 100%; residual activity [28]: 100%; inhibition [29]: 11.2%; residual activity [30]: 100%; residual activity [31]: 100%; residual activity [32]: 100%; residual activity [33]: 90%; inhibition [34]: 73.7%; Ki [35]: 2820 nM; residual activity [36]: 100%; residual activity [37]: 100%; residual activity [38]: 99%; residual activity [39]: 100%
2 | Cc1c(C(=O)O)cc(-c2ccc(C3CCNCC3)cc2)c2ccc(-c3ccc(C(F)(F)F)cc3)cc12 [PPTN-NC] | 100% | 100% | 100% | 100% | 100% | 100% | 85% | 100% | 86% | 100% | 100% | 82% | 100% | 100% | 100% | 100% | 100% | 85% | 100% | 100% | residual activity [21]: 100%; residual activity [22]: 100%; residual activity [23]: 100%; residual activity [24]: 100%; inhibition [25]: 27.9%; residual activity [26]: 100%; residual activity [27]: 100%; residual activity [28]: 100%; inhibition [29]: 1.01%; residual activity [30]: 100%; residual activity [31]: 100%; residual activity [32]: 100%; residual activity [33]: 100%; inhibition [34]: 58.1%; Ki [35]: 2860 nM; residual activity [36]: 100%; residual activity [37]: 100%; residual activity [38]: 100%; residual activity [39]: 100%
